According to ChEMBL document CHEMBL5357005, “Discovery and Heterologous Production of Tetrapetalones Provide Insights into the Formation of the Tetracyclic System” (J Nat Prod, 2024):
The source made the active and inactive calls.

How the values were obtained:
Staphylococcus aureus = assay: Antimicrobial activity against Staphylococcus aureus ATCC 25923 assessed as reduction in microbial growth measured for 24 hrs by paper disc diffusion method; assay type: functional, organism-based
Pseudomonas aeruginosa = assay: Antimicrobial activity against Pseudomonas aeruginosa PA01 assessed as reduction in microbial growth measured for 24 hrs by paper disc diffusion method; assay type: functional, organism-based
Salmonella typhimurium = assay: Antimicrobial activity against Salmonella enterica subsp. enterica serovar Typhimurium assessed as reduction in microbial growth measured for 24 hrs by paper disc diffusion method; assay type: functional, organism-based
Candida albicans = assay: Antifungal activity against Candida albicans 5314 assessed as reduction in microbial growth measured for 48 hrs by paper disc diffusion method; assay type: functional, organism-based
SW480 = assay: Cytotoxicity against human SW480 cells assessed as reduction in cell viability at 50 uM by sulfonyl rhodamine B colorimetry analysis; assay type: functional, cell-based
HCT-116 = assay: Cytotoxicity against human HCT-116 cells assessed as reduction in cell viability at 50 uM by sulfonyl rhodamine B colorimetry analysis; assay type: functional, cell-based

Measured: Activity

CC1=C[C@H]2C(O)=C(C)C(=O)N2C2=CC(=O)C=C3[C@@H](O[C@@H]4CC[C@H](O)[C@H](C)O4)[C@H](C)[C@@H]1[C@]32O
inactive: Staphylococcus aureus | Pseudomonas aeruginosa | Salmonella typhimurium | Candida albicans | SW480 | HCT-116

CC1=C[C@@]2(CO)C(O)=C(C)C(=O)N2C2=CC(=O)C=C3[C@@H](O[C@@H]4CC[C@H](O)[C@H](C)O4)[C@H](C)[C@@H]1[C@]32O
inactive: Staphylococcus aureus | Pseudomonas aeruginosa | Salmonella typhimurium | Candida albicans | SW480 | HCT-116

CC[C@@]12C=C(C)[C@@H]3[C@@H](C)[C@H](O[C@@H]4CC[C@H](O)[C@H](C)O4)C4=CC(=O)C=C(N1C(=O)C(C)=C2O)[C@@]43O
inactive: Staphylococcus aureus | Pseudomonas aeruginosa | Salmonella typhimurium | Candida albicans | SW480 | HCT-116

CC1=C[C@@]2(C)C(O)=C(C)C(=O)N2C2=CC(=O)C=C3[C@@H](O[C@H]4O[C@H](C)[C@@H](O)[C@H](O)[C@@H]4O)[C@H](C)[C@@H]1[C@]32O
inactive: Staphylococcus aureus | Pseudomonas aeruginosa | Salmonella typhimurium | Candida albicans | SW480 | HCT-116

CC1=C[C@@]2(C)C(O)=C(C)C(=O)N2C2=CC(=O)C=C3[C@@H](O[C@@H]4CC[C@H](O)[C@H](C)O4)[C@H](C)[C@@H]1[C@]32O
inactive: Staphylococcus aureus | Pseudomonas aeruginosa | Salmonella typhimurium | Candida albicans | SW480 | HCT-116

CC[C@@]12C=C(C)[C@@H]3[C@@H](C)[C@H](O)C4=CC(=O)C=C(N1C(=O)C(C)=C2O)[C@@]43O
inactive: Staphylococcus aureus | Pseudomonas aeruginosa | Salmonella typhimurium | Candida albicans | SW480 | HCT-116

CC1=C[C@@]2(C)C(O)=C(C)C(=O)N2C2=CC(=O)C=C3[C@@H](O)[C@H](C)[C@@H]1[C@]32O
inactive: Staphylococcus aureus | Pseudomonas aeruginosa | Salmonella typhimurium | Candida albicans | SW480 | HCT-116

CC[C@@]12C=C(C)[C@@H]3[C@@H](C)[C@H](O[C@H]4O[C@H](C)[C@@H](O)[C@H](O)[C@@H]4O)C4=CC(=O)C=C(N1C(=O)C(C)=C2O)[C@@]43O
inactive: Staphylococcus aureus | Pseudomonas aeruginosa | Salmonella typhimurium | Candida albicans | SW480 | HCT-116
